According to US8859596B2, “Compounds as cannabinoid receptor ligands” (priority 2008, dated 2014):
Where two headings read alike, the source gives them in different places.

Key:
[1] = target: human CB2 receptors (Homo sapiens (Human), UniProt P34972); experiment: human CB2 radioligand binding assay ([3H]CP 55,940 competition)
Procedure: (§1) The CB1 and CB2 radioligand binding assays described herein are utilized to ascertain the affinity of compounds of the present application for binding to CB2 relative to CB1 receptors.
HEK293 cells stably expressing human CB2 receptors were grown until a confluent monolayer was formed. Briefly, the cells were harvested and homogenized in TE buffer (50 mM Tris-HCl, 1 mM MgCl2, and 1 mM EDTA) using a polytron for 2×10 second bursts in the presence of protease inhibitors, followed by centrifugation at 45,000×g for 20 minutes. The final membrane pellet was re-homogenized in storage buffer (50 mM Tris-HCl, 1 mM MgCl2, and 1 mM EDTA and 10% sucrose) and frozen at −78° C. until used. Saturation binding reactions were initiated by the addition of membrane preparation (protein concentration of 5 μg/well for human CB2) into wells of a deep well plate containing [^3H]CP 55,940 (120 Ci/mmol, a nonselective CB agonist commercially available from Tocris) in assay buffer (50 mM Tris, 2.5 mM EDTA, 5 mM MgCl2, and 0.5 mg/mL fatty acid free BSA, pH 7.4). After 90 min incubation at 30° C., binding reaction was terminated by the addition of 300 μL/well of cold assay buffer followed by rapid vacuum filtration through a UniFilter-96 GF/C filter plates (pre-soaked in 1 mg/mL BSA for 2 hours). The bound activity was counted in a TopCount using Microscint-20. Saturation experiments were conducted with twelve concentrations of [^3H]CP 55,940 ranging from 0.01 to 8 nM. Competition experiments were conducted with 0.5 nM [^3H]CP 55,940 and five concentrations (0.01 nM to 10 μM) of displacing ligands. The addition of 10 μM unlabeled CP 55,940 (Tocris, Ellisville, Mo.) was used to assess nonspecific binding.

[2] = target: rat CB2 (Rattus norvegicus (Rat), UniProt Q9QZN9); experiment: rat CB2 radioligand binding assay ([3H]CP 55,940 competition)
rat CB2, sequence (Q9QZN9 whole entry): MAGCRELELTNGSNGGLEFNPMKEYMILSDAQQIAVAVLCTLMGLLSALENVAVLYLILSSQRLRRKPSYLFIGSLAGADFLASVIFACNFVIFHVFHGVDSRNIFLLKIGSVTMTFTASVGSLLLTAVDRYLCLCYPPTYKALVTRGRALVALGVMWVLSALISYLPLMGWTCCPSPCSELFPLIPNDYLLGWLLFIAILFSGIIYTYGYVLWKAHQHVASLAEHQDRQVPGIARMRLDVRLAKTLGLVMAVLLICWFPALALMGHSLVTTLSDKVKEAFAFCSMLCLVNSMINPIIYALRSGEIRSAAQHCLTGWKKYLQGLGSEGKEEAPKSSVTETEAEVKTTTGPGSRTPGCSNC
Procedure: as §1
HEK293 cells stably expressing rat CB2 receptors were grown until a confluent monolayer was formed. Briefly, the cells were harvested and homogenized in TE buffer (50 mM Tris-HCl, 1 mM MgCl2, and 1 mM EDTA) using a polytron for 2×10 second bursts in the presence of protease inhibitors, followed by centrifugation at 45,000×g for 20 minutes. The final membrane pellet was re-homogenized in storage buffer (50 mM Tris-HCl, 1 mM MgCl2, and 1 mM EDTA and 10% sucrose) and frozen at −78° C. until used. Saturation binding reactions were initiated by the addition of membrane preparation (protein concentration of 20 μg/well for rat CB2) into wells of a deep well plate containing [^3H]CP 55,940 (120 Ci/mmol, a nonselective CB agonist commercially available from Tocris) in assay buffer (50 mM Tris, 2.5 mM EDTA, 5 mM MgCl2, and 0.5 mg/mL fatty acid free BSA, pH 7.4). After 45 min incubation at 30° C., binding reaction was terminated by the addition of 300 μl/well of cold assay buffer followed by rapid vacuum filtration through a UniFilter-96 GF/C filter plates (pre-soaked in 1 mg/mL BSA for 2 hours). The bound activity was counted in a TopCount using Microscint-20. Saturation experiments were conducted with twelve concentrations of [^3H]CP 55,940 ranging from 0.01 to 8 nM. Competition experiments were conducted with 0.5 nM [^3H]CP 55,940 and five concentrations of displacing ligands selected from the range of 0.01 nM to […] addition of 10 μM unlabeled CP 55,940 (Tocris, Ellisville, Mo.) was used to assess nonspecific binding.

[3] = HEK293 membranes, 0.5 nM [3H]CP 55,940, read-out: human CB2 (Ki)
[4] = HEK293 membranes, 0.5 nM [3H]CP 55,940, read-out: rat CB2 (Ki)

human CB2 receptors, sequence (P34972 whole entry): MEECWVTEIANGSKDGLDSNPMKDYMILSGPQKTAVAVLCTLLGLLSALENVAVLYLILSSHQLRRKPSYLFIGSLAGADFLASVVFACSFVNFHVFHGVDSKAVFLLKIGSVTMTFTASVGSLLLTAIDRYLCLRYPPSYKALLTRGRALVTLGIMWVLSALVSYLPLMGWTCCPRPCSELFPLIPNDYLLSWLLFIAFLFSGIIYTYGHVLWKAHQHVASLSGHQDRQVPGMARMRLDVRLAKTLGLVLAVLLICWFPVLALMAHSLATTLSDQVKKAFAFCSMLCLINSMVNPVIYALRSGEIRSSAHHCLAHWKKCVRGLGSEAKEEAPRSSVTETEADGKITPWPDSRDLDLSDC

Compound: Cn1c(C(C)(C)C)c/c(=N\C(=O)c2cc(Cl)ccc2ONC(C)(C)C)n1C[C@H]1CCCO1 [Example 168, 2-[(tert-butylamino)oxy]-N-{(3E)-5-tert-butyl-1-methyl-2-[(2R)-tetrahydrofuran-2-ylmethyl]-1,2-dihydro-3H-pyrazol-3-ylidene}-5-chlorobenzamide]
- Ki [1, 3]: 52 nM
- Ki [2, 4]: 21 nM

Compound: CCCCn1/c(=N/C(=O)c2cc(C(F)(F)F)ccc2NNC(=O)C(C)(C)C)cc(C(C)(C)C)n1C [Example 198, N-[(3E)-2-butyl-5-tert-butyl-1-methyl-1,2-dihydro-3H-pyrazol-3-ylidene]-2-[2-(2,2-dimethylpropanoyl)hydrazino]-5-(trifluoromethyl)benzamide]
- Ki [1, 3]: 0.4 nM
- Ki [2, 4]: 1.7 nM

Compound: CCCCn1nc(C(C)(C)C)s/c1=N\C(=O)c1cc(C(F)(F)F)ccc1NNc1ccccn1 [Example 183, N-[(2Z)-3-butyl-5-tert-butyl-1,3,4-thiadiazol-2(3H)-ylidene]-2-(2-pyridin-2-ylhydrazino)-5-(trifluoromethyl)benzamide]
- Ki [1, 3]: 32 nM
- Ki [2, 4]: 5.6 nM

Compound: CCCCn1nc(C(C)(C)C)s/c1=N\C(=O)c1cc(C(F)(F)F)ccc1NNCc1ccccc1 [Example 202, 2-(2-benzylhydrazino)-N-[(2Z)-3-butyl-5-tert-butyl-1,3,4-thiadiazol-2(3H)-ylidene]-5-(trifluoromethyl)benzamide]
- Ki [1, 3]: 43 nM
- Ki [2, 4]: 36 nM

Compound: Cn1c(C(C)(C)C)c/c(=N\C(=O)c2cc(C(F)(F)F)ccc2ONC(C)(C)C)n1CCC(F)(F)F [Example 156, 2-[(tert-butylamino)oxy]-N-[(3E)-5-tert-butyl-1-methyl-2-(3,3,3-trifluoropropyl)-1,2-dihydro-3H-pyrazol-3-ylidene]-5-(trifluoromethyl)benzamide]
- Ki [1]: 68 nM
- Ki [2]: 10 nM

Compound: C/C(=N\Oc1ccc(C(F)(F)F)cc1C(=O)/N=c1\cc(C(C)(C)C)n(C)n1CC1CC1)C(F)(F)F [Example 179, N-[(3E)-5-tert-butyl-2-(cyclopropylmethyl)-1-methyl-1,2-dihydro-3H-pyrazol-3-ylidene]-5-trifluoromethyl-2-({[(1E)-2,2,2-trifluoro-1-methylethylidene]amino}oxy)benzamide]
- Ki [1, 3]: > 1000 nM
- Ki [2, 4]: 288 nM

Compound: CC(C)Cn1nc(C(C)(C)C)s/c1=N\C(=O)c1cc(C(F)(F)F)ccc1ONC(C)(C)C [Example 152, 2-[(tert-butylamino)oxy]-N-[(2Z)-5-tert-butyl-3-isobutyl-1,3,4-thiadiazol-2(3H)-ylidene]-5-(trifluoromethyl)benzamide]
- Ki [1, 3]: 29 nM
- Ki [2, 4]: 31 nM

Compound: CCCCn1/c(=N/C(=O)c2cc(C(F)(F)F)ccc2NNC(=O)c2ccncc2)cc(C(C)(C)C)n1C [Example 200, N-[(3E)-2-butyl-5-tert-butyl-1-methyl-1,2-dihydro-3H-pyrazol-3-ylidene]-2-(2-isonicotinoylhydrazino)-5-(trifluoromethyl)benzamide]
- Ki [1, 3]: 0.7 nM
- Ki [2, 4]: 1.3 nM

Compound: CCCCn1nc(C(C)(C)C)s/c1=N\C(=O)c1ccc(C(F)(F)F)cc1ONC(C)(C)C [Example 170, 2-[(tert-butylamino)oxy]-N-[(2Z)-3-butyl-5-tert-butyl-1,3,4-thiadiazol-2(3H)-ylidene]-4-(trifluoromethyl)benzamide]
- Ki [1, 3]: 127 nM
- Ki [2, 4]: 6.3 nM

Compound: CCCCn1/c(=N/C(=O)c2cc(C(F)(F)F)ccc2ONC(C)C)cc(C(C)(C)C)n1C [Example 159, N-[(3E)-2-butyl-5-tert-butyl-1-methyl-1,2-dihydro-3H-pyrazol-3-ylidene]-2-[(isopropylamino)oxy]-5-(trifluoromethyl)benzamide]
- Ki [1, 3]: 16 nM
- Ki [2, 4]: 5.2 nM

Compound: CCCCn1nc(C(C)(C)C)s/c1=N\C(=O)c1cc(C(F)(F)F)ccc1ON=C(N)c1cccnc1 [Example 204, 2-({[amino(pyridin-3-yl)methylene]amino}oxy)-N-[(2Z)-3-butyl-5-tert-butyl-1,3,4-thiadiazol-2(3H)-ylidene]-5-(trifluoromethyl)benzamide]
- Ki [1, 3]: 87 nM
- Ki [2, 4]: 13 nM

Compound: CCCCn1nc(C(C)(C)C)s/c1=N\C(=O)c1cc(Cl)ccc1ONC(C)(C)C [Example 162, 2-[(tert-butylamino)oxy]-N-[(2Z)-3-butyl-5-tert-butyl-1,3,4-thiadiazol-2(3H)-ylidene]-5-chlorobenzamide]
- Ki [1, 3]: 8.5 nM
- Ki [2, 4]: 0.6 nM

Compound: CCCCn1nc(C(C)(C)C)s/c1=N\C(=O)c1cc(C(F)(F)F)ccc1ON(C)C [Example 171, N-[(2Z)-3-butyl-5-tert-butyl-1,3,4-thiadiazol-2(3H)-ylidene]-2-[(dimethylamino)oxy]-5-(trifluoromethyl)benzamide]
- Ki [1]: 21 nM
- Ki [2]: 4.9 nM

Compound: CCCCn1nc(C(C)(C)C)s/c1=N\C(=O)c1cc(C(F)(F)F)ccc1ON=C(C)N [Example 185, 2-({[1-aminoethylidene]amino}oxy)-N-[(2Z)-3-butyl-5-tert-butyl-1,3,4-thiadiazol-2(3H)-ylidene]-5-(trifluoromethyl)benzamide]
- Ki [1, 3]: 16 nM
- Ki [2, 4]: 3.6 nM

Compound: CCCCn1nc(C(C)(C)C)s/c1=N\C(=O)c1cc(C(F)(F)F)ccc1NNC(=O)OC(C)(C)C [Example 181, tert-butyl 2-[2-({[(2Z)-3-butyl-5-tert-butyl-1,3,4-thiadiazol-2(3H)-ylidene]amino}carbonyl)-4-(trifluoromethyl)phenyl]hydrazinecarboxylate]
- Ki [1]: 1 nM
- Ki [2]: 1.7 nM

Compound: CCCCn1nc(C(C)(C)C)s/c1=N\C(=O)c1cc(C(F)(F)F)ccc1ON=C(N)c1ccc(F)cc1 [Example 182, 2-({[amino(4-fluorophenyl)methylene]amino}oxy)-N-[(2Z)-3-butyl-5-tert-butyl-1,3,4-thiadiazol-2(3H)-ylidene]-5-(trifluoromethyl)benzamide]
- Ki [1, 3]: 21 nM
- Ki [2, 4]: 7 nM

Compound: CCCCn1nc(C(C)(C)C)s/c1=N\C(=O)c1cc(C(F)(F)F)ccc1NNC(=O)OC [Example 192, methyl 2-[2-({[(2Z)-3-butyl-5-tert-butyl-1,3,4-thiadiazol-2(3H)-ylidene]amino}carbonyl)-4-(trifluoromethyl)phenyl]hydrazinecarboxylate]
- Ki [1]: 0.7 nM
- Ki [2]: 0.7 nM

Compound: C/C(=N\Oc1ccc(C(F)(F)F)cc1C(=O)/N=c1\cc(C(C)(C)C)n(C)n1C[C@H]1CCCO1)C(F)(F)F [Example 178, N-{(3E)-5-tert-butyl-1-methyl-2-[(2R)-tetrahydrofuran-2-ylmethyl]-1,2-dihydro-3H-pyrazol-3-ylidene}-5-(trifluoromethyl)-2-({[(1E)-2,2,2-trifluoro-1-methylethylidene]amino}oxy)benzamide]
- Ki [1, 3]: > 1000 nM
- Ki [2, 4]: 40 nM

Compound: CCCCn1nc(C(C)(C)C)s/c1=N\C(=O)c1cc(C(F)(F)F)ccc1ONC(=O)C(C)(C)C [Example 169, N-[(2Z)-3-butyl-5-tert-butyl-1,3,4-thiadiazol-2(3H)-ylidene]-2-{[(2,2-dimethylpropanoyl)amino]oxy}-5-(trifluoromethyl)benzamide]
- Ki [1, 3]: 0.6 nM
- Ki [2, 4]: 0.6 nM

Compound: CCCCn1nc(C(C)(C)C)s/c1=N\C(=O)c1cc(C(F)(F)F)ccc1NNC(=O)c1ccncc1 [Example 191, N-[(2Z)-3-butyl-5-tert-butyl-1,3,4-thiadiazol-2(3H)-ylidene]-2-(2-isonicotinoylhydrazino)-5-(trifluoromethyl)benzamide]
- Ki [1, 3]: 0.8 nM
- Ki [2, 4]: 0.9 nM

Compound: CCCCn1nc(C(C)(C)C)s/c1=N\C(=O)c1cc(C(F)(F)F)ccc1ON=C1CCCC1 [Example 190, N-[(2Z)-3-butyl-5-tert-butyl-1,3,4-thiadiazol-2(3H)-ylidene]-2-[(cyclopentylideneamino)oxy]-5-(trifluoromethyl)benzamide]
- Ki [1, 3]: 1.7 nM
- Ki [2, 4]: 3.2 nM
